Laboratory results from patent publication US9581586B2, “Approach to asthma inhaler compliance using breath measurement of tetrafluoroethane” (The Regents of the University of California, priority 2014, dated 2017).
Where two headings read alike, the source gives them in different places.

Key:
[1] = Exhaled breath HFA-134a levels after asthma inhaler administration (GC with MSD); type: in vivo, human
Experimental: Study participants were randomly assigned to inhaled corticosteroid (ICS, Flovent HFA, 220 mcg, n=5) or short acting bronchodilator (Albuterol, Proventil HFA, n=5). Baseline exhaled breath sampling and standard lung function test were performed prior to the medication dispersion. After baseline measurements, the participants inhaled two puffs of either Flovent HFA (Glaxo Smith Kline) or Proventil HFA (Merck & CO., INC) using a spacer (AeroChamberPlus Flow-Vu, Monaghan). Breath sampling and lung function test were performed immediately after inhalation (<5 min), and at 2, 4, 6, 8, 24, and 48 hours post administration (see FIG. 3).
Exhaled breath samples were collected in evacuated electro-polished stainless steel canisters (volume=1.9 L). The analytic system used in this study is similar to the system described in Colman et al., 2001 (18). Briefly, 790 mL of the collected air sample is pre-concentrated in a stainless steel loop filled with glass beads and submerged in liquid nitrogen to remove the nitrogen, oxygen and argon present in the sample. The sample is re-vaporized using hot water (at approximately 80° C.) and split into five different column/detector combinations housed in three gas chromatographs (GCs) using UHP helium as the carrier gas: (1) DB-1 column (J&W; 60 m, 0.32 mm I.D., 1 μm film thickness) output to a flame ionization detector (FID); (2) DB-5 column (J&W; 30 m, 0.25 mm I.D., 1 vim film thickness) connected in series to a RESTEK 1701 column (5 m, 0.25 mm I.D., 0.5 μm film thickness) and output to an electron capture detector (ECD); (3) RESTEK 1701 column (60 m, 0.25 mm I.D., 0.50 μm film thickness) output to an ECD; (4) PLOT column (J&W GS-Alumina; 30 m, 0.53 mm I.D.) connected in series to a DB-1 column (J&W; 5 m, 0.53 mm I.D., 1.5 μm film thickness) and output to an FID; (5) DB-5 ms column (J&W; 60 m, 0.25 mm I.D., 0.5 μm film thickness) output to a quadrupole mass spectrometer detector (MSD, HP 5973). The MSD is set to operate in selected ion monitoring (SIM) mode with one ion chosen to quantify each compound in order to achieve the maximum selectivity and to avoid potential interferences. All gas chromatographs and detectors used in this study are manufactured by Hewlett Packard. The analytical system allows for the identification and quantification of different classes of volatile organic compounds (VOCs). […] Simultaneously, room air samples were also collected in the same location to quantify corresponding ambient levels of HFA-134a.

[2] = as above; type: in vivo, human; settings: n=1, Flovent HFA one puff per day for nine days, last ICS approximately 24 hr before sampling
[3] = Three compartment pharmacokinetic analysis of HFA elimination in breath after Flovent HFA; type: in vivo, human; settings: for half-life: human, exhaled breath, inhaled
Experimental: 24 hr, 36 hr, and 48 hr—post Flovent HFA administration (red and blue open circle). All sample collections were held open space. […] The calculated half-lives are 0.97, 20.7, and 442 minutes for subject #1 and 0.92, 27.6, and 355 minutes for subject #2.
As further disclosed in FIG. 5, the inventors re-defined the experiment and have performed a compartmental pharmacokinetic analysis of HFA elimination kinetics using HFA at 5 min, 7 min, 10 min, 15 min, 30 min, 1 hr, 2 hr, 3 hr, 4 hr, 6 hr, 8 hr, 12 hr. 24 hr, 36 hr, and 48 hr—post Flovent HFA administration. The HFA elimination could be modeled using three compartment pharmacokinetic analysis (Eq1). […] The elimination rate constant in each compartment, L1, L2, and L3, respectively are −0.1970, −0.0183, and −0.0013 for subject #1 and −0.1720, −0.0142, and −0.0018 for subject #2. The corresponding half-lives are 0.97, 20.7, and 442 minutes for subject #1 and 0.92, 27.6, and 355 minutes for subject #2.

[4] = in vivo; cited from earlier work
[5] = 500 ppm of HFA-134a for two hours; cited from earlier work
[6] = metabolite of HFA-134a, only in some urine samples at trace levels; cited from earlier work
[7] = Albuterol subject #3 (Proventil HFA)

For `FCC(F)(F)F` [HFA-134a, 1,1,1,2-tetrafluoroethane], the “Exhaled HFA-134a levels at the 2-hr time point” value ([1]; 2 hr post inhaler administration, range over subjects) was 28000-266000 pptv, the “HFA concentration in breath at 48 hr post typical asthma inhaler administration” value ([1]; 48 hr post) was “still detectable” and the “Breath HFA-134a 48 hr post medication” value [1, 7] was 224 pptv. For the same compound, the “Breath HFA-134a right after medication” value [1, 7] was 6.2 ppmv, the “Breath HFA-134a at 48 hour time point” value ([1]; ICS subject #3 (Flovent HFA)) was 287 pptv and the “Breath HFA-134a right after drug administration” value ([1]; ICS subject #3 (Flovent HFA)) was 179 ppmv. The “Breath HFA-134a at 48 hour time point” value ([1]; ICS subject #4 (Flovent HFA)) was 351 pptv, the “Breath HFA-134a right after drug administration” value ([1]; ICS subject #4 (Flovent HFA)) was 48 ppmv and the “Time HFA can be measured in exhaled breath after a typical single inhalation” value ([1]; down to parts-per-trillion levels) was “at least 48 hours”. The “HFA-134a breath levels immediately after inhalation” value ([1]; healthy controls, Flovent HFA or Proventil HFA, immediately after inhalation) was 300×10^6 pptv, the “Time HFA is detectable above ambient levels following an inhalation” value ([1]; healthy participants) was “up to 24 hours” and the “Exhaled breath HFA-134a levels right after inhalation (range over subjects)” value ([1]; healthy participants, two puffs of asthma inhaler, right after inhalation) was 3-300 ppmv. For the same compound, the “Mean (SD) levels of HFA-134a in exhaled breath at 48-hr post inhaler administration” value ([1]; seven of ten healthy participants, 48 hr post) was 260 (138) pptv, the “Breath HFA-134a levels at 48 hours post inhaler administration” value ([1]; similar to room HFA-134a levels, also at baseline) was “approximately 200 pptv” and the “Baseline breath HFA level of symptomatic asthma subject on ICS” value [2] was 710 ppt. For the same compound, the half-life ([3]; subject #1, read-out: Half-life corresponding to L1) was 0.97 min, the half-life ([3]; subject #1, read-out: Half-life corresponding to L2) was 20.7 min and the half-life ([3]; subject #1, read-out: Half-life corresponding to L3) was 442 min. It also gave a half-life ([3]; subject #2, read-out: Half-life corresponding to L1) of 0.92 min, a half-life ([3]; subject #2, read-out: Half-life corresponding to L2) of 27.6 min and a half-life ([3]; subject #2, read-out: Half-life corresponding to L3) of 355 min. For the same compound, the “Elimination rate constant L1” value ([3]; subject #1, post Flovent HFA) was −0.1970 reciprocal minutes, the “Elimination rate constant L2” value ([3]; subject #1, post Flovent HFA) was −0.0183 reciprocal minutes and the “Elimination rate constant L3” value ([3]; subject #1, post Flovent HFA) was −0.0013 reciprocal minutes. For the same compound, the “Elimination rate constant L1” value ([3]; subject #2, post Flovent HFA) was −0.1720 reciprocal minutes, the “Elimination rate constant L2” value ([3]; subject #2, post Flovent HFA) was −0.0142 reciprocal minutes and the “Elimination rate constant L3” value ([3]; subject #2, post Flovent HFA) was −0.0018 reciprocal minutes. For the same compound, the “HFA-134a levels in blood samples” value [4] was “below 10 % of the initially administered concentration”, the “Decrease of exhaled breath HFA-134a compared with HFA-134a in plasma when exposure stopped” value [5] was “almost an order of magnitude faster” and the “Exhaled breath HFA-134a the day after the exposure” value [5] was “not-detectable”.
In the case of `O=C(O)C(F)(F)F` [trifluoroacetic acid], the “Trifluoroacetic acid detected in urine samples” value [6] is given as “less than 0.0005 % of the administered dose”.
